Measurements from patent US12660819B2, “Herbicidal derivatives” (SYNGENTA CROP PROTECTION AG, priority 2020, dated 2026).

Experiments:
Type in all cases: in vivo
[1] = test system: Amaranthus retoflexus (AMARE); test: Post-emergence Test (glasshouse, percentage damage to the plant); details: post-emergence spray, 1000 g/ha unless otherwise stated, evaluated after 13 days
Procedure, shortened: (§1)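 Rate 1000 g/ha unless stated otherwise. Vehicle: acetone/water 50:50 with 0.5% Tween 20, diluted into aqueous spray. Timing: spray after sowing, read 13 days later. Score: 5=81-100%, 4=61-80%, 3=41-60%, 2=21-40%, 1=0-20% damage.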

[2] = test system: Echinochloa crus-galli (ECHCG); test: as above; details: post-emergence spray, 1000 g/ha unless otherwise stated, evaluated after 13 days
Procedure, shortened: as §1

[3] = test system: Ipomoea hederacea (IPOHE); test: as above; details: post-emergence spray, 1000 g/ha unless otherwise stated, evaluated after 13 days
Procedure, shortened: (§2)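 After sowing in standard soil, pots were kept at 24/16 °C (day/night), 14 h light and 65% humidity. They were sprayed at 1000 g/ha unless otherwise stated, watered twice daily, and assessed for percentage damage at 13 days on a 1–5 scale.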

[4] = test system: Lolium perenne (LOLPE); test: as above; details: post-emergence spray, 1000 g/ha unless otherwise stated, evaluated after 13 days
Procedure, shortened: as §1

[5] = test system: Setaria faberi (SETFA); test: as above; details: post-emergence spray, 1000 g/ha unless otherwise stated, evaluated after 13 days
Procedure, shortened: as §2

[6] = test system: Solanum nigrum (SOLNI); test: as above; details: post-emergence spray, 1000 g/ha unless otherwise stated, evaluated after 13 days
Procedure, shortened: as §1

[7] = test system: Amaranthus retoflexus (AMARE); test: Pre-emergence Test (glasshouse, percentage damage to the plant); details: 1000 g/ha unless otherwise stated, five-point scale
[8] = test system: Solanum nigrum (SOLNI); test: as above; details: 1000 g/ha unless otherwise stated, five-point scale
[9] = test system: Setaria faberi (SETFA); test: as above; details: 1000 g/ha unless otherwise stated, five-point scale
[10] = test system: Lolium perenne (LOLPE); test: as above; details: 1000 g/ha unless otherwise stated, five-point scale
[11] = test system: Echinochloa crus-galli (ECHCG); test: as above; details: 1000 g/ha unless otherwise stated, five-point scale
[12] = test system: Ipomoea hederacea (IPOHE); test: as above; details: 1000 g/ha unless otherwise stated, five-point scale

Row | Compound | Post-emergence Test AMARE, percentage damage to the plant (five-point scale) [1] | Post-emergence Test ECHCG, percentage damage to the plant (five-point scale) [2] | Post-emergence Test IPOHE, percentage damage to the plant (five-point scale) [3] | Post-emergence Test LOLPE, percentage damage to the plant (five-point scale) [4] | Post-emergence Test SETFA, percentage damage to the plant (five-point scale) [5] | Post-emergence Test SOLNI, percentage damage to the plant (five-point scale) [6] | percentage damage to the plant, AMARE [7] | percentage damage to the plant, SOLNI [8] | percentage damage to the plant, SETFA [9] | percentage damage to the plant, LOLPE [10] | percentage damage to the plant, ECHCG [11] | percentage damage to the plant, IPOHE [12]
1 | CCn1c(C)c(-c2cncn2C)c(=O)c(C(=O)O)c1-c1ccc(Cl)c(Cl)c1 [Compound 40, 2-(3,4-dichlorophenyl)-1-ethyl-6-methyl-5-(3-methylimidazol-4-yl)-4-oxo-pyridine-3-carboxylic acid] | 1 (1=0-20%) | 1 (1=0-20%) | 1 (1=0-20%) | 1 (1=0-20%) | 1 (1=0-20%) | 2 (2=21-40%) | 1 (1=0-20%) | 1 (1=0-20%) | 1 (1=0-20%) | 1 (1=0-20%) | 1 (1=0-20%) | 1 (1=0-20%)
2 | CCn1c(C)c(-c2ccnnc2)c(=O)c(C(=O)O)c1-c1ccc(Cl)c(Cl)c1 [Compound 35, 2-(3,4-dichlorophenyl)-1-ethyl-6-methyl-4-oxo-5-pyridazin-4-yl-pyridine-3-carboxylic acid;2,2,2-trifluoroacetic acid, 2,2,2-trifluoroacetate] | 1 (1=0-20%) | 2 (2=21-40%) | 1 (1=0-20%) | 1 (1=0-20%) | 2 (2=21-40%) | 1 (1=0-20%) | 1 (1=0-20%) | 1 (1=0-20%) | 1 (1=0-20%) | 1 (1=0-20%) | 1 (1=0-20%) | 1 (1=0-20%)
3 | CCn1c(C)c(-c2ccccc2F)c(=O)c(C(=O)O)c1-c1ccc(Cl)c(Cl)c1 [Compound 14, 2-(3,4-dichlorophenyl)-1-ethyl-5-(2-fluorophenyl)-6-methyl-4-oxo-pyridine-3-carboxylic acid] | 4 (4=61-80%) | 4 (4=61-80%) | 4 (4=61-80%) | 4 (4=61-80%) | 4 (4=61-80%) | 3 (3=41-60%) | 2 (2=21-40%) | 2 (2=21-40%) | 5 (5=81-100%) | 1 (1=0-20%) | 4 (4=61-80%) | 3 (3=41-60%)
4 | CCn1c(C)c(-c2ccoc2)c(=O)c(C(=O)O)c1-c1ccc(Cl)c(Cl)c1 [Compound 33, 2-(3,4-dichlorophenyl)-1-ethyl-5-(3-furyl)-6-methyl-4-oxo-pyridine-3-carboxylic acid] | 3 (3=41-60%) | 2 (2=21-40%) | 3 (3=41-60%) | 2 (2=21-40%) | 1 (1=0-20%) | 3 (3=41-60%) | 1 (1=0-20%) | 1 (1=0-20%) | 1 (1=0-20%) | 1 (1=0-20%) | 1 (1=0-20%) | 2 (2=21-40%)
5 | CCn1c(C)c(-c2ccc(F)cc2)c(=O)c(C(=O)O)c1-c1ccc(Cl)c(Cl)c1 [Compound 11, 2-(3,4-dichlorophenyl)-1-ethyl-5-(4-fluorophenyl)-6-methyl-4-oxo-pyridine-3-carboxylic acid] | 4 (4=61-80%) | 4 (4=61-80%) | 4 (4=61-80%) | 2 (2=21-40%) | 4 (4=61-80%) | 5 (5=81-100%) | 5 (5=81-100%) | 5 (5=81-100%) | 5 (5=81-100%) | 1 (1=0-20%) | 5 (5=81-100%) | 2 (2=21-40%)
6 | CCn1c(C)c(-c2ncco2)c(=O)c(C(=O)O)c1-c1ccc(Cl)c(Cl)c1 [Compound 27, 2-(3,4-dichlorophenyl)-1-ethyl-6-methyl-5-oxazol-2-yl-4-oxo-pyridine-3-carboxylic acid] | 3 (3=41-60%) | 3 (3=41-60%) | 2 (2=21-40%) | 1 (1=0-20%) | 3 (3=41-60%) | 3 (3=41-60%) | 1 (1=0-20%) | 1 (1=0-20%) | 1 (1=0-20%) | 1 (1=0-20%) | 1 (1=0-20%) | 1 (1=0-20%)
7 | CCn1c(C)c(-c2ccc(C(F)(F)F)cc2)c(=O)c(C(=O)O)c1-c1ccc(Cl)c(Cl)c1 [Compound 26, 2-(3,4-dichlorophenyl)-1-ethyl-6-methyl-4-oxo-5-[4-(trifluoromethyl)phenyl]pyridine-3-carboxylic acid] | 5 (5=81-100%) | 4 (4=61-80%) | 4 (4=61-80%) | 1 (1=0-20%) | 5 (5=81-100%) | 2 (2=21-40%) | 1 (1=0-20%) | 1 (1=0-20%) | 1 (1=0-20%) | 1 (1=0-20%) | 1 (1=0-20%) | 1 (1=0-20%)
8 | CCn1c(C)c(-c2ccc(F)c(Cl)c2)c(=O)c(C(=O)O)c1-c1ccc(Cl)c(Cl)c1 [Compound 22, 5-(3-chloro-4-fluoro-phenyl)-2-(3,4-dichlorophenyl)-1-ethyl-6-methyl-4-oxo-pyridine-3-carboxylic acid] | 5 (5=81-100%) | 2 (2=21-40%) | 3 (3=41-60%) | 2 (2=21-40%) | 4 (4=61-80%) | 4 (4=61-80%) | 2 (2=21-40%) | 2 (2=21-40%) | 3 (3=41-60%) | 2 (2=21-40%) | 1 (1=0-20%) | 1 (1=0-20%)
9 | CCn1c(C)c(-c2ccc(OC)nc2)c(=O)c(C(=O)O)c1-c1ccc(Cl)c(Cl)c1 [Compound 126, 2-(3,4-dichlorophenyl)-1-ethyl-5-(6-methoxy-3-pyridyl)-6-methyl-4-oxo-pyridine-3-carboxylic acid] | 5 (5=81-100%) | 4 (4=61-80%) | 4 (4=61-80%) | 2 (2=21-40%) | 5 (5=81-100%) | 5 (5=81-100%) | 5 (5=81-100%) | 4 (4=61-80%) | 4 (4=61-80%) | 0 | 2 (2=21-40%) | 3 (3=41-60%)
